One experiment concerns PC3. More on the design: method as in PMID 15142541. The conditions noted are these: cited from earlier work.
A further experiment concerns L. donovani. Also noted: method as in PMID 15142541. The conditions noted are these: cited from earlier work.
Another experiment has as its system Vero. Also noted: method as in PMID 15142541. The conditions noted are these: cited from earlier work.
The next experiment deals with T. brucei. Also noted: method as in PMID 15142541. The conditions noted are these: cited from earlier work.
For the next experiment, the system named is RAW 264.7 cells. The experiment in a line: Cytotoxicity to RAW 264.7 cells (MTT). Type of experiment: cell-based, murine. The conditions noted are these: Mus musculus, RAW264.7, 48 h, read-out: EC50 RAW. How it is done: LLC-MK2 kidney fibroblasts (ATCC) and RAW 264.7 macrophages (ATCC) were cultivated in culture flasks in complete DMEM with 5% FBS at 37 °C in 5% CO2. The LLC-MK2 cell monolayer was detached by treatment with trypsin-EDTA 0.05% for 5 min at 37 °C. The RAW cell monolayer was detached mechanically. In both cases, the cells were centrifuged at 480× g for 6 min and resuspended in complete DMEM with 5% FBS, and the cell density was determined by counting with trypan-blue dye exclusion on Neubauer chambers before use.
RAW 264.7 cells were seeded in a 96-well microplate (2.0 × 10^4 cells per well) in complete DMEM with 5% FBS (120 µL per well). After incubation for 24 h at 37 °C in 5% CO2, the medium was renewed, and compounds were added at a range of concentrations in triplicate (100–1 μM). Untreated cells and cells treated with DMEM and 10% DMSO were used as negative and positive controls, respectively. Vehicle control containing DMEM and 0.3% DMSO was maintained for comparison. After incubation for 48 h at 37 °C in 5% CO2, the medium was renewed, and an MTT solution in PBS was added (3.0 mM, 20 µL per well). After incubation for 2 h at 37 °C in 5% CO2, the supernatant was removed, and MTT formazan was dissolved in DMSO (150 µL per well). Absorbance was measured using a microplate reader at 570 nm.
(§1) The percent cell or parasite viability was calculated by the formula: % viability = [(A − P)/(N − P)] × 100, A = absorbance of specific well, P = positive control, N = negative control. Determination of half-maximal effective concentrations (EC50), calculated by logarithmic regression, and significance analysis (p < 0.05), using ANOVA and Dunnett’s test, by GraphPad Prism 7.0 software. The results are expressed as the mean and standard deviation (SD) of three independent experiments.

Experiment [1] deals with L. amazonensis promastigotes. The experiment in a line: Anti-L. amazonensis promastigote assessment (MTT). Type of experiment: cell-based. The conditions noted are these: Leishmania amazonensis, 48 h, read-out: EC50 L. amazonensis promastigotes. Here is the method: Promastigotes of L. amazonensis (MHOM/BR/75/Josefa) were cultured in Schneider’s insect medium (SIM) with 10% FBS. Parasites were harvested at the stationary growth phase for assessment against promastigotes and 24 h after cultures reached the stationary growth phase for infection assays. […]. Complete SIM media and amphotericin B (AmB) at 10 µM were used as negative and positive controls, respectively. A vehicle control containing SIM with 10% SFB media and 0.3% DMSO was maintained for comparison. The final volume of the experiment was 100 µL. After incubation for 48 h at 27 °C, MTT salt solution in PBS was added (3.0 mM, 20 µL per well). After incubation for 2 h at 27 °C, the MTT formazan was dissolved by adding 120 µL of solubilizing buffer (50% isopropanol, 40% acetate buffer pH 5.4, 10% Triton-X). Absorbance was measured using a microplate reader at 570 nm.
as §1

The subject of experiment [2] is L. amazonensis amastigotes. The experiment in a line: Anti-L. amazonensis amastigote assessment in RAW 264.7 macrophages. Type of experiment: cell-based, Leishmania amazonensis. Here is the method: RAW 264.7 cells were seeded in a 96-well microplate (2.0 × 10^4 cells per well) in complete DMEM with 5% FBS and incubated for 3 h at 37 °C in 5% CO2 for cell adhesion. The medium was renewed, and L. amazonensis promastigotes (3.0 × 10^5 parasites per well) were added. After 24 h of incubation at 37 °C in 5% CO2, the cell monolayer was washed with PBS to remove noninternalized parasites, the medium was renewed, and compounds were added at a range of concentrations in triplicate (100–1 μM). Untreated infected cells and noninfected RAW 264.7 cells were used as negative and positive controls, respectively. Vehicle control containing DMEM and 0.3% DMSO was maintained for comparison. After incubation for 48 h at 37 °C in 5% CO2, the medium was removed, and a solution containing 0.02% SDS in PBS (20 µL per well) was added. Macrophage lysis and amastigote release were accompanied under an inverted microscope for 10–15 min. SIM with 12.5% SFB (80 µL per well) was added, parasites were allowed to differentiate into promastigotes for 48 h at 27 °C, and an MTT salt solution in PBS was added (3.0 mM, 20 µL per well). After incubation for 2 h at 27 °C, the MTT formazan was dissolved by adding 120 µL of solubilizing buffer (50% isopropanol, 40% acetate buffer pH 5.4, 10% Triton X). Absorbance was measured using a microplate reader at 570 nm.
as §1

In experiment [3] the test system is Lucena-1 (K562/VCR). More on the design: method as in PMID 32229586. The conditions noted are these: reference drugs; cited from earlier work.
In the next experiment the test system is K562. More on the design: method as in PMID 32229586. The conditions noted are these: reference drugs; cited from earlier work.
Experiment [4] has as its system FEPS (K562/DNR). Also noted: method as in PMID 32229586. The conditions noted are these: reference drugs; cited from earlier work.
In experiment [5] the test system is Lucena-1 (K562/VCR). The experiment in a line: cells. It counts as cell-based, human. The conditions noted are these: reference drugs, Lucena-1/K562, ratio of EC50 values from ref 64. How it is done:
(§2) The CML cell lines K562, Lucena-1 (K562/VCR), and FEPS (K562/DNR) were cultured in RPMI-1640 medium supplemented with 25 mM HEPES and 2 g L^−1 sodium bicarbonate adjusted to pH 7.4 with NaOH, 100 U penicillin and […] streptomycin. All media were supplemented with 10% FBS. Dr. Vivian M. Rumjanek (Instituto de Bioquímica Médica, UFRJ, Brazil) kindly donated Lucena-1 and FEPS cells. Briefly, K562 cells were exposed to increasing concentrations of the chemotherapeutic drugs vincristine sulfate (VCR) and daunorubicin hydrochloride (DNR) (both from Sigma-Aldrich), as described previously. Lucena-1 (K562/VCR) and FEPS (K562/DNR) cells were cultured in the presence of either 60 nM VCR or 500 nM DNR to maintain the MDR phenotypes. For subcultures, cells were harvested every three days followed by washing with cold FBS, and a final concentration of 2 × 10^4 cells mL^−1 was maintained at 37 °C in 5% CO2.
(§3) Cell viability was determined by the 3-(4,5-dimethylthiazol-2-yl)-2,5-diphenyltetrazolium (MTT) colorimetric assay. CML cells (2 × 10^4 cells·mL^−1) were incubated for 72 h at 37 °C, followed by treatment with compounds at a range of concentrations (100–1 μM). Negative controls were prepared with 0.5% DMSO. An MTT salt solution was added to each well to a final concentration of 0.5 g·L^−1, and plates were incubated at 37 °C in 5% CO2 for 3 h. After centrifugation, 200 μL DMSO was added to dissolve the dark-blue formazan crystals formed by MTT reduction. Absorbance was measured on a microplate reader at 570 nm, which is directly proportional to formazan contents and indicative of living cells.
as §1

Experiment [6] relates to FEPS (K562/DNR). The experiment in a line: MTT cytotoxicity to MDR CML cell line FEPS. Type of experiment: cell-based, human. The conditions noted are these: reference drugs, FEPS/K562, ratio of EC50 values from ref 64. Here is the method:
as §2, §3, §1

The subject of a further experiment is A375. More on the design: method as in doi:10.1134/S1070363218050304. The conditions noted are these: cited from earlier work.
The subject of a further experiment is ACHN. Also noted: method as in doi:10.1134/S1070363218050304. The conditions noted are these: cited from earlier work.
The next experiment relates to MCF-7. More on the design: method as in doi:10.1134/S1070363218050304. The conditions noted are these: cited from earlier work.
A further experiment relates to HL-60. Also noted: method as in PMID 20411988. The conditions noted are these: sensitive promyelocytic leukemia; cited from earlier work.
Another experiment has as its system HL-60/VCR. Also noted: method as in PMID 20411988. The conditions noted are these: drug-resistant promyelocytic leukemia; cited from earlier work.
The subject of a further experiment is T. cruzi epimastigotes. More on the design: method as in PMID 19517898. The conditions noted are these: T. cruzi epimastigotes at 50 μM; cited from earlier work.
The subject of the next experiment is T. cruzi amastigotes. Also noted: method as in PMID 22727447. The conditions noted are these: cited from earlier work.
The test system of a further experiment is Leishmania amazonensis. Also noted: method as in PMID 19962891. The conditions noted are these: cited from earlier work.
For a further experiment, the system named is T. cruzi trypomastigotes. More on the design: method as in PMID 23006639. The conditions noted are these: cited from earlier work.
The subject of experiment [7] is T. cruzi. More on the design: method as in PMID 23006639. The conditions noted are these: cited from earlier work.
In experiment [8] the test system is Trypanosoma brucei rhodesiense. More on the design: method as in PMID 22217867. The conditions noted are these: cited from earlier work.
The next experiment relates to Leishmania donovani. Also noted: method as in PMID 22217867. The conditions noted are these: cited from earlier work.
The subject of experiment [9] is T. cruzi. Also noted: method as in PMID 22217867. The conditions noted are these: cited from earlier work.

Where a name gives a salt, the structure may show the parent alone.

`N#CSCc1nc(-c2ccc(Cl)c(Cl)c2)no1` [Compound 8]: the 50% inhibitory concentration (IC50) was 3.9 µM with PC3, 2.3 µM with L. donovani, 70 µM with Vero and 5.2 µM in the experiment with T. brucei.

For `C[C@@H]1[C@H](O)[C@@H](C)/C=C/C=C/C=C/C=C/C=C/C=C/C=C/[C@H](O[C@@H]2O[C@H](C)[C@@H](O)[C@H](N)[C@@H]2O)C[C@@H]2O[C@](O)(C[C@@H](O)C[C@@H](O)[C@H](O)CC[C@@H](O)C[C@@H](O)CC(=O)O[C@H]1C)C[C@H](O)[C@H]2C(=O)O` [Amphotericin B, reference compound], the EC50 in the experiment on RAW 264.7 cells turned out to be 9.8 ± 3.3 µM; in [1] it was 0.094 ± 0.001 µM; in experiment [2] (Leishmania amazonensis, RAW264.7, 48 h, read-out: EC50 L. amazonensis intracellular amastigotes), 0.151 ± 0.022 µM. Besides, in experiment [2] (host cell/parasite EC50 ratio, RAW/L. amazonensis), the “S.I. (selectivity index)” value is reported as 65.2.

For `COc1cccc2c1C(=O)c1c(O)c3c(c(O)c1C2=O)C[C@@](O)(C(C)=O)C[C@@H]3O[C@H]1C[C@H](N)[C@H](O)[C@H](C)O1` [DNR, daunorubicin hydrochloride], the EC50 in the experiment on Lucena-1 (K562/VCR) [3] was 3.06 ± 0.87 µM; in the experiment with K562, 0.082 ± 0.001 µM; in the experiment on FEPS (K562/DNR) [4], 6.45 ± 1.27 µM. For the same compound, the “RR (relative resistance) Lucena-1” value in the experiment with Lucena-1 (K562/VCR) [5] was 37.3. Further, in the experiment with FEPS (K562/DNR) [6], the “RR (relative resistance) FEPS” value is on record as 78.6.

As for `COc1cc(-c2nc(-c3c(Cl)nc4sc(C)nn34)no2)cc(OC)c1OC` [Compound 6], the 50% inhibitory concentration (IC50) in the experiment on A375 was 1.22 µM; in the experiment with ACHN it was 0.11 µM; in the experiment on MCF-7, 0.23 µM.

Consider `COc1cccc(/C=C/C(=O)Nc2cc(OC)c(OC)c(OC)c2)c1` [Compound 2], for which the IC50 was 3.1 µM in the experiment with HL-60 and 11.6 µM with HL-60/VCR.

Regarding `COc1ccc(OC)c(/C=C/C(=O)Nc2nc3ccccc3s2)c1` [Compound 1], in the experiment on T. cruzi epimastigotes, the apoptosis is 40.2%, the necrosis is reported as 17.9% and the parasite death is on record as 58.1%.

As to `CC[C@]1(O)C[C@H]2CN(CCc3c([nH]c4ccccc34)[C@@](C(=O)OC)(c3cc4c(cc3OC)N(C=O)[C@H]3[C@@](O)(C(=O)OC)[C@H](OC(C)=O)[C@]5(CC)C=CCN6CC[C@]43[C@@H]65)C2)C1` [VCR, vincristine sulfate], the EC50 in the experiment on Lucena-1 (K562/VCR) [3] was 0.85 ± 0.12 µM; in the experiment with K562, 0.054 ± 0.005 µM; with FEPS (K562/DNR) [4], 1.05 ± 0.07 µM. Further, in the experiment on Lucena-1 (K562/VCR) [5], the “RR (relative resistance) Lucena-1” value is 15.7. Also, the “RR (relative resistance) FEPS” value in the experiment on FEPS (K562/DNR) [6] was found to be 19.4.

Turning to `O=C(/C=C/c1ccc2c(c1)OCO2)c1cccs1` [Compound 4], the IC50 with T. cruzi amastigotes is 5.6 µM.

Take `C=COc1cc(OC)c(C(=O)/C=C/c2ccncc2)c(OC=C)c1` [Compound 3]: the IC50 in the experiment with Leishmania amazonensis was 0.6 µM.

With `O=C(NN=Cc1ccc2c(c1)OCO2)c1nc(-c2ccc(Cl)cc2)no1` [conjugate 9], the IC50 in the experiment with T. cruzi trypomastigotes was 3.5 µM. Also, the “effect on parasitemia in infected mice” value in the experiment with T. cruzi [7] was “reduce parasitemia”.

For `Cc1ccc(-c2noc(CN3N=NC4C(=O)N(c5ccccc5)C(=O)C43)n2)cc1` (stereo not drawn) [Compound 7], the IC50 in [8] is 21.6 µM; in the experiment on Leishmania donovani it was 5.7 µM; in the experiment with T. cruzi [9] it was 100 µM.

Broadly, the IC50 is the point on the concentration scale where inhibition reaches its midpoint. A word on the EC50: it is the concentration that produces a half-maximal response.

Values taken from paper PMC9787607, “A Novel Protocol for the Synthesis of 1,2,4-Oxadiazoles Active against Trypanosomatids and Drug-Resistant Leukemia Cell Lines” (Tropical Medicine and Infectious Disease, 2022).
